Several values for one entry are separate records, joined by “and”; a condition that tells them apart may be missing. Equal entries are not always repeated.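 Method: 48-hour compound exposure of cells in 96-well plates, five concentrations, linear interpolation of endpoints. GI50 = concentration required for 50% inhibition of growth. TGI is the concentration that stops growth completely.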
Key:
Assay in all cases: NCI tumour cell line growth inhibition, 48 h
KM12 colon = tested on: KM12 colon
M14 melanoma = tested on: M14 melanoma
OVCAR-5 ovarian = tested on: OVCAR-5 ovarian
HCT-15 colon = tested on: HCT-15 colon
ACHN renal = tested on: ACHN renal
SF-268 CNS = tested on: SF-268 CNS
OVCAR-3 ovarian = tested on: OVCAR-3 ovarian
MDA-MB-231 breast = tested on: MDA-MB-231 breast
SK-MEL-5 melanoma = tested on: SK-MEL-5 melanoma
PC-3 prostate = tested on: PC-3 prostate

Structure (SMILES)	GI50 (KM12 colon)	TGI (KM12 colon)	GI50 (M14 melanoma)	TGI (M14 melanoma)	GI50 (OVCAR-5 ovarian)	TGI (OVCAR-5 ovarian)	GI50 (HCT-15 colon)	TGI (HCT-15 colon)	GI50 (ACHN renal)	TGI (ACHN renal)	GI50 (SF-268 CNS)	TGI (SF-268 CNS)	GI50 (OVCAR-3 ovarian)	TGI (OVCAR-3 ovarian)	GI50 (MDA-MB-231 breast)	TGI (MDA-MB-231 breast)	GI50 (SK-MEL-5 melanoma)	TGI (SK-MEL-5 melanoma)	GI50 (PC-3 prostate)	TGI (PC-3 prostate)
CS(=O)(=O)Nc1cc(-c2ccc3ncnc(Nc4cccc(Cl)c4)c3c2)cnc1Cl	1.03 µM	5.11 µM	0.542 µM	10.6 µM	0.223 µM	13.5 µM	0.296 µM	2.72 µM	0.474 µM	46.6 µM	0.337 µM	4.71 µM	0.343 µM	2.28 µM	1.05 µM	5.56 µM	0.35 µM	1.47 µM	0.288 µM	11.5 µM
Clc1ccc(CN2CCCN(Cc3ccc(Cl)cc3)C2c2cc3ccccc3c3ccccc23)cc1	–	> 100 µM	–	34.2 µM	–	> 100 µM	–	> 100 µM	–	> 100 µM	–	> 100 µM	–	> 100 µM	–	> 100 µM	–	32.7 µM	–	> 100 µM
COc1ccc2c(c1OC)O/C(=C\c1ncc([N+](=O)[O-])n1C)C2=O	2.79 µM	10.3 µM	0.591 µM	2.52 µM	2.82 µM	12.5 µM	0.487 µM	3.61 µM	0.342 µM	1.46 µM	1.36 µM	6.39 µM	1.6 µM	6.16 µM	1.37 µM	5.32 µM	0.905 µM	2.35 µM	3.76 µM	> 29.4 µM
CC1(C)N=C(N)N=C(N)N1c1cccc(CCc2ccccc2)c1	0.456 µM	14.6 µM	1.29 µM	> 100 µM	–	> 100 µM	45.6 µM	> 100 µM	13.4 µM	> 100 µM	0.34 µM	57.5 µM	0.44 µM	24.9 µM	4.27 µM	> 100 µM	0.429 µM	8.82 µM	0.11 µM	> 59 µM
O=C1Nc2ccc3c(c2/C1=C\c1cc2c(cc1Br)OCO2)OCO3	0.307 µM	1.43 µM	0.341 µM	5.76 µM	1.55 µM	5.89 µM	0.515 µM	> 100 µM	0.689 µM	6.55 µM	0.524 µM	3.28 µM	0.217 µM	0.589 µM	0.793 µM	3.27 µM	0.429 µM	2.52 µM	0.338 µM	2.8 µM
COc1cc2cc(Oc3cccc(NC(=O)Nc4cc(C(F)(F)F)cc(C(F)(F)F)c4)c3)c(C)nc2cc1OC	0.918 µM	2.46 µM	1 µM	2.88 µM	1.93 µM	4.14 µM	0.668 µM	2.04 µM	0.39 µM	1.69 µM	1.62 µM	3.68 µM	0.488 µM	1.7 µM	1.08 µM	2.49 µM	1.62 µM	3.28 µM	0.423 µM	2.48 µM
COc1ccc(C2NC(=S)NC3=C2CCOc2c3ccc3ccccc23)cc1 (stereo unspecified)	27 µM	> 100 µM	> 100 µM	> 100 µM	> 100 µM	> 100 µM	21.4 µM	> 100 µM	69.3 µM	> 100 µM	6.73 µM	> 100 µM	51.5 µM	> 100 µM	98.9 µM	> 100 µM	18.2 µM	> 100 µM	> 100 µM	> 100 µM
COc1cc2ncnc(Oc3cccc(NC(=O)Nc4cc(C(C)(C)C(F)(F)F)on4)c3)c2cc1OC	3.4 µM and 5.28 µM	14 µM and > 10 µM	0.105 µM and 0.18 µM	1.47 µM and 1.91 µM	1.1 µM and 1.01 µM	10.5 µM and > 10 µM	2.16 µM and 2.67 µM	12.5 µM and > 10 µM	0.438 µM and 0.598 µM	12.9 µM and > 10 µM	2.59 µM and 2.69 µM	17.4 µM and > 10 µM	2.66 µM and 3.62 µM	16.5 µM and > 10 µM	1.03 µM and 0.571 µM	4.44 µM and 7.3 µM	1.3 µM and 1.45 µM	3.01 µM and 3.67 µM	2.65 µM and 3.68 µM	19.4 µM and > 10 µM
COc1ccc(/C=C/C(=O)c2cc3c(N)c(C(=O)Nc4ccc(OC)cc4)sc3nc2C)cc1	0.203 µM	20.5 µM	0.19 µM	–	0.299 µM	> 50 µM	0.391 µM	> 50 µM	0.397 µM	> 50 µM	2.02 µM	> 50 µM	0.0276 µM	1.96 µM	1.28 µM	22 µM	0.203 µM	4.03 µM	0.434 µM	> 50 µM
CCOC(=O)[C@@H]1CSC(CC)=C(C(=O)O)N1	> 100 µM	> 100 µM	> 100 µM	> 100 µM	> 100 µM	> 100 µM	> 100 µM	> 100 µM	> 100 µM	> 100 µM	> 100 µM	> 100 µM	> 100 µM	> 100 µM	> 100 µM	> 100 µM	> 100 µM	> 100 µM	> 100 µM	> 100 µM
COc1cc(NC2CCCCC2O)c2nc(-c3ccc(Cl)cc3)ccc2c1 (stereo unspecified)	3.82 µM	29.2 µM	9.23 µM	33.9 µM	19.1 µM	> 100 µM	2.94 µM	22.4 µM	8.94 µM	> 100 µM	9.68 µM	> 100 µM	10.5 µM	32.8 µM	4.43 µM	57.8 µM	10.6 µM	23.1 µM	4.87 µM	> 100 µM
Nn1c(-c2ccc(Cl)cc2)nc2c(-c3ccc(Cl)cc3)nc3ccc(Cl)cc3c2c1=O	> 100 µM	> 100 µM	15.1 µM	> 100 µM	> 100 µM	> 100 µM	> 100 µM	> 100 µM	5.42 µM	25.5 µM	5.18 µM	72.3 µM	2.7 µM	8.68 µM	14.1 µM	62.5 µM	56.6 µM	> 100 µM	60.7 µM	> 100 µM
COc1ccc(-c2csc(Nc3cccc(-c4csc(C)n4)c3)n2)cc1	1.17 µM	> 16.7 µM	2.79 µM	14.2 µM	3.45 µM	48.6 µM	0.226 µM	> 47.7 µM	0.859 µM	18.6 µM	2.48 µM	> 50 µM	0.489 µM	> 10.8 µM	0.824 µM	4.52 µM	1.19 µM	7.85 µM	1.97 µM	> 50 µM
COc1cc(/C=C2\SC(N3CCCCC3)=NC2=O)ccc1OCCCCCCOc1ccc(/C=C2\SC(N3CCCCC3)=NC2=O)cc1OC	11.1 µM	25 µM	21.9 µM	> 100 µM	22.9 µM	59.1 µM	15.2 µM	53.1 µM	15.1 µM	34.2 µM	4.2 µM	17.6 µM	6.04 µM	18.7 µM	2.13 µM	21 µM	9.35 µM	28.2 µM	12.4 µM	56.7 µM
COc1cc2c3cc1Oc1c(OC)c(OC)cc4c1C(Cc1ccc(O)c(c1)Oc1ccc(cc1)CC3N(C)CC2)N(C)CC4 (stereo unspecified)	14.2 µM	65.8 µM and 31.8 µM	–	> 100 µM	8.3 µM	> 100 µM and 62.4 µM	4.82 µM	37.6 µM and > 100 µM	12.7 µM	34.9 µM and 44.1 µM	15.2 µM	64.2 µM and 51.8 µM	–	39.1 µM	5.21 µM	> 100 µM and 21.9 µM	11 µM	52 µM and 23.3 µM	23.4 µM	> 100 µM
C[As](C)SC1OCC(O)C(O)C1O (stereo unspecified)	0.387 µM	3.83 µM	0.128 µM	0.925 µM	0.208 µM	0.71 µM	0.107 µM	0.611 µM	0.148 µM	0.624 µM	0.492 µM	2.88 µM	0.081 µM	0.412 µM	0.224 µM	0.63 µM	0.166 µM	0.382 µM	0.506 µM	5.73 µM
CC[C@H]1OC(=O)[C@H](C)[C@@H](O[C@H]2C[C@@](C)(OC)[C@@H](O)[C@H](C)O2)[C@H](C)[C@@H](O[C@@H]2O[C@H](C)C[C@H](N(C)C)[C@H]2O)[C@](C)(OC)C/C(C)=C2/O[C@@]1(C)C=C2C	1.63 µM	3.11 µM	–	–	1.68 µM	3.06 µM	1.89 µM	3.6 µM	1.76 µM	3.15 µM	1.6 µM	3.3 µM	1.76 µM	3.28 µM	1.67 µM	3.13 µM	1.79 µM	3.21 µM	1.68 µM	3.46 µM
OCCN(CO)CO	–	> 100 µM	–	> 100 µM	–	–	–	> 100 µM	–	> 100 µM	–	> 100 µM	–	> 100 µM	–	> 100 µM	–	> 100 µM	–	> 100 µM
CSC1=Nc2c(c(C)c(-c3ccccc3)n2COC(CO)CO)C2=NC(=O)CC(C)N12 (stereo unspecified)	> 100 µM	> 100 µM	–	–	> 100 µM	> 100 µM	> 100 µM	> 100 µM	> 100 µM	> 100 µM	> 100 µM	> 100 µM	> 100 µM	> 100 µM	> 100 µM	> 100 µM	> 100 µM	> 100 µM	> 100 µM	> 100 µM

— PubChem BioAssay (NCI)
